“Also recorded” adds a separate entry of the source. Where a name gives a salt, the structure may show the parent alone. Read-outs that look alike come from different tables or passages of the source.
What was measured:
[1] = system: peptide 1 (A-beta1-42 peptide); test: CD titration of iron-complexed peptide 1 with silanes (Example 9); assay type: biochemical, human
[2] = system: NF-M17; test: CD titration of NF-M17 peptide/aluminum with silicon compounds (Example 1); assay type: biochemical, human
[3] = in vitro; details: human, Caco-2
[4] = system: A-beta antigen; test: Slot blot of A-beta antigen extracted from Alzheimer's brain tissue sections (Example 8); parameters: species or system human
[5] = biological target: T1, A-beta1-42 peptide (Homo sapiens, UniProt P05067); assay type: biochemical
[6] = system: A-beta1-42 peptide; assay type: biochemical, human
[7] = system: Caco-2 cells
[8] = biological target: T1, A-beta1-42 peptide; assay type: biochemical; remark: listed apart in the source
[9] = system: Caco-2 cells; details: for Permeation Coefficient (cm/sec) Mean ± SD, where applicable: human

T1 sequence (P05067 672-713): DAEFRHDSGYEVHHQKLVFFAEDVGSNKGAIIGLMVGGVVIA

With `C[Si](O)(O)CCCC#N` [3f, (dihydroxy)methyl(3-cyanopropyl)silane] the “return of the helical CD spectrum on titration of iron-complexed peptide 1” value [1] was “dosage effect is evident, but non-linear” and the “titration point showing the greatest degree of recovery” value [1] was 0.25 eq.
In the case of `NCCC[Si](O)(O)O` [APST, 3-aminopropylsilantriol], the “Restore original spectra?” value [2] is reported as “Yes”, the “chelation of aluminum compared to sodium orthosilicate” value [2] is reported as “improved chelation” and the “restoration of the CD spectrum of NF-M17/aluminum to its original shape” value [2] is reported as “able to restore”.
With `CC[Si](O)(CC)Cc1ccccc1` [BDS, benzyldiethylsilanol] the “Restore original spectra?” value [2] was “No” and the “restoration of the CD spectrum of NF-M17/aluminum to its original shape” value [2] was “did not restore”.
In the case of `CCC(C#N)C[Si](C)(Cl)Cl` (centres unmarked) [CBMS, 2-cyanobutylmethyldichlorosilane], the Papp A→B [3] is reported as 6.5 ×10⁻⁶ cm/s and the “Total Extracted” value [4] is reported as 5.2 fmol.
In the case of `C[Si](Cl)(Cl)CCC#N` [CEMS, 2-cyanoethylmethyldichlorosilane], the Papp A→B [3] is reported as 4.6 ×10⁻⁶ cm/s and the “protection of the helical structure of A-beta1-42 against amyloid formation by aluminum (III)” value [5] is reported as “protection of the helical structure”.
For `CC(C#N)C[Si](C)(Cl)Cl` (centres unmarked) [CPMS, 2-cyanopropylmethyldichlorosilane], the Papp A→B [3] was 6.1 ×10⁻⁶ cm/s, the “Total Extracted” value [4] was 6.0 fmol and the “extraction of A-beta antigen from Alzheimer's tissue” value [4] was “no detectable antigen”.
In the case of `N#CCCC[Si](Cl)(Cl)Cl` [CPTCS, 3-cyanopropyltrichlorosilane], the “Restore original spectra?” value [2] is reported as “Yes”, the “equivalents at which the CD spectrum of NF-M17/aluminum was restored to its original shape” value [2] is reported as “around 32 equivalents” and the “reversal of the effect of aluminum on the CD spectrum of A-beta1-42” value [6] is reported as “Moderate reversal; also recorded: almost full reversal”.
In the case of `CC[Si](Cl)(Cl)CC` [DCDES, dichlorodiethylsilane], the “Restore original spectra?” value [2] is reported as “Yes”, the “equivalents at which the CD spectrum of NF-M17/aluminum was restored to its original shape” value [2] is reported as “around 32 equivalents” and the “restoration of the original CD spectrum of A-beta1-42 peptide after exposure to aluminum” value (shortened to “restoration … to aluminum”) [6] is reported as “at least partially restored”.
For `CC(C)[Si](Cl)(Cl)C(C)C` [DCDIPS, dichlorodiisopropylsilane], the “Restore original spectra?” value [2] was “Yes”, the “equivalents at which the CD spectrum of NF-M17/aluminum was restored to its original shape” value [2] was “around 32 equivalents” and the “restoration … to aluminum” value [6] was “at least partially restored”.
For `O[Si](O)(c1ccccc1)c1ccccc1` [DPSD, diphenylsilandiol], the “Restore original spectra?” value ([2]; CD spectrum of NF-M17 with 8 equivalents of aluminum, in TFE) was “(DMSO interfered with spectra)” and the “restoration of the CD spectrum of NF-M17/aluminum to its original shape” value ([2]; NF-M17 with 8 equivalents of aluminum, in TFE) was “did not restore”.
In the case of `Cl` [HCl, hydrochloric acid, reference compound], the “extraction of A-beta antigen from Alzheimer's tissue” value [4] is reported as “no detectable antigen” and the “reversing the helix-coil transition by acid” value [1] is reported as “effective for reversing the helix-coil transition”.
With `CCCCCC[Si](C)(Cl)Cl` [HMDS, hexylmethyldichlorosilane] the “Restore original spectra?” value [2] was “Yes”, the “equivalents at which the CD spectrum of NF-M17/aluminum was restored to its original shape” value [2] was “around 32 equivalents” and the “restoration … to aluminum” value [6] was “at least partially restored”.
For `C[Si](Cl)(Cl)c1ccccc1` [MPDS, methylphenyldichlorosilane], the “Restore original spectra?” value [2] was “Yes” and the “equivalents at which the CD spectrum of NF-M17/aluminum was restored to its original shape” value [2] was “around 32 equivalents”.
In the case of `CCCCCCCC[Si](Cl)(Cl)Cl` [OTCS, n-octyltrichlorosilane], the “Restore original spectra?” value [2] is reported as “(gelation of OTCS)” and the “restoration of the CD spectrum of NF-M17/aluminum to its original shape” value [2] is reported as “did not restore”.
For `C1CC[Si]2(CCCCO2)OC1` [SDSU, 1,7-dioxa-6-sila-spiro[5.5]undecane], the “transport across Caco-2 cells” value [7] was “significant amount of transport” and the “restoration … to aluminum” value [6] was “at least partially restored”.
With `CC(=O)O[Si](OC(C)=O)(OC(C)=O)OC(C)=O` [TAS, tetraacetooxysilane] the “restoration … to aluminum” value [6] was “at least partially restored”.
With `CC(C)(C)[Si](C)(C)O` [TBDMS, tert-butyldimethylsilanol] the “Restore original spectra?” value [2] was “No” and the “restoration of the CD spectrum of NF-M17/aluminum to its original shape” value [2] was “did not restore”.
For `CC[Si](O)(CC)CC` [TES, triethylsilanol], the “Restore original spectra?” value [2] was “No”, the “restoration of the CD spectrum of NF-M17/aluminum to its original shape” value [2] was “did not restore” and the “restoration … to aluminum” value [6] was “at least partially restored”.
In the case of `[Zn]` [Zinc], the “effect of the metal on the A-beta1-42 CD spectrum” value (“effect of the metal” for short) [8] is reported as “minor or no effects”.
With `C[Si](Cl)(Cl)CC[Si](C)(Cl)Cl` [compound 1042, 1,2-(methyldichlorosilyl)ethane] the “Total Extracted” value ([4]; Braak V tissue, 1 h at room temperature, corrected for volume dilution) was 14.0 fmol, the “share of total antigen released to the extract” value ([4]; based on the intensity from urea-solubilized tissues) was “approximately 12%” and the “crossing of the epithelial barrier in the Caco-2 model” value ([9]; Caco-2) was “crossed the epithelial barrier efficiently”. For the same molecule, the “permeation of Caco-2 cells relative to mannitol” value ([9]; Caco-2) was “at least four times greater” and the “Permeation Coefficient (cm/sec) Mean ± SD, where applicable” value ([9]; Caco-2, 60 min, 20 mM) was 2.5 × 10^−5 (n = 2) cm/sec.
In the case of `[Cu]` [copper], the “effect of the metal” value [8] is reported as “strong effects”.
With `[Fe+2]` [iron (II)] the “effect of the metal” value [8] was “minor or no effects”.
In the case of `[Fe+3]` [iron (III)], the “effect of the metal” value [8] is reported as “strong effects”.
With `O.O.O.O.O.O.O.O.O.O=[Si]([O-])[O-].[Na+].[Na+]` [sodium metasilicate, sodium metasilicate nonahydrate, reference compound] the “equivalents at which the CD curve began to return / showed some return to its original shape” value ([2]; NF-M17 with 8 equivalents of aluminum) was “about 32 equivalents”.
With `CN(C)[Si](N(C)C)(N(C)C)N(C)C` [tetrakis, tetrakis(dimethylamino)silane] the “restoration … to aluminum” value [6] was “at least partially restored”.
For “(dichloro)methylsilylbutyronitrile [DCMSBN]”, the “relative transport across Caco-2 cells (FIG. 29B vs FIG. 29A)” value [7] was “more transport”, the “transport across Caco-2 cells” value [7] was “significant amount of transport” and the “Restore original spectra?” value [2] was “Yes”. For the same molecule, the “equivalents at which the CD spectrum of NF-M17/aluminum was restored to its original shape” value [2] was “around 32 equivalents” and the “restoration … to aluminum” value [6] was “at least partially restored”.
In the case of Aluminum, the “effect of the metal” value [8] is reported as “decreases with higher concentrations; also recorded: strong effects”.
For dichlorosilacyclobutane [DCSCB], the “transport across Caco-2 cells” value [7] was “significant amount of transport” and the “restoration … to aluminum” value [6] was “at least partially restored”.
With triethoxysilylbutyronitrile [TESB] the “relative transport across Caco-2 cells (FIG. 29B vs FIG. 29A)” value [7] was “more transport”, the “transport across Caco-2 cells” value [7] was “significant amount of transport” and the “permeation of Caco-2 cells relative to mannitol” value ([9]; Caco-2) was “at least four times greater”. For the same molecule, the “Permeation Coefficient (cm/sec) Mean ± SD, where applicable” value ([9]; Caco-2) was 3.0 × 10^−5 (n = 2) cm/sec and the “restoration … to aluminum” value [6] was “at least partially restored; also recorded: reverses aluminum-induced denaturation”.
With triethoxysilylpropionitrile [TESP] the “restoration … to aluminum” value [6] was “at least partially restored”.
With “trihydroxysilylmethyl phosphonate [TSMP]” the “permeation of Caco-2 cells relative to mannitol” value ([9]; Caco-2) was “slower permeation than mannitol”.
